Common to all, as to assay: FMN fluorescence quenching on binding to apoprotein, time trace
Assay [1] addresses T1, flavodoxin (C69A apoflavodoxin; F44Y apoflavodoxin) (Azotobacter vinelandii, UniProt P00324, C70A).
T1 construct: gene nifF; full-length isolated apoflavodoxin, 179 residues, expressed in E. coli TG2; FMN removed
As to conditions: 10 or 100 mM potassium PPi, pH 6.0, 25 °C; 140 nM protein, 25 nM FMN.

The target of assay [2] is T2, apo-F44YP (released F44Y flavodoxin construct) (Azotobacter vinelandii, UniProt P00324, F45Y/C70A).
T2 construct: gene nifF; tags kept
The following applies: 100 mM potassium PPi, 25 °C; refolded apo-F44YP 147 nM, 25 nM FMN.

For assay [3], the target named is T3, F44YRNC (ribosome-nascent chain complex of F44Y flavodoxin) (Azotobacter vinelandii, UniProt P00324, F45Y/C70A).
T3 construct: gene nifF; fusion: triple StrepII tag, Smt3, flavodoxin, TEV site, linker, SecM; stalled on E. coli ribosome, made in vitro with PURExpress, Strep-Tactin purified; tags kept
The following applies: buffer I (HEPES-KOH, magnesium acetate), pH 7.4, 25 °C; 50 nM RNC, 25 nM FMN; stalled on ribosome.

The results in this text go back to paper PMC5207065, “The Ribosome Restrains Molten Globule Formation in Stalled Nascent Flavodoxin” (The Journal of Biological Chemistry, 2016).

T1 sequence (P00324 2-180 C70A): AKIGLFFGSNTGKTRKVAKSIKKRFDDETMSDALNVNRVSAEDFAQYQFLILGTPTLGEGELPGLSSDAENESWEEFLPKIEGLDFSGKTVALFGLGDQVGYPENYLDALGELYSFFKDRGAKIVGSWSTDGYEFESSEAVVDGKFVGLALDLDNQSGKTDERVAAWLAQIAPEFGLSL
T3 sequence (P00324 2-180 F45Y/C70A, one chain of several): as the sequence (P00324 2-180 C70A) above, with F44Y counted along it
T2 sequence (P00324 2-180 F45Y/C70A): as the sequence (P00324 2-180 C70A) above, with F44Y counted along it

On to `Cc1cc2nc3c(=O)[nH]c(=O)nc-3n(C[C@H](O)[C@H](O)[C@H](O)COP(=O)(O)O)c2cc1C` [FMN], for which the “FMN fluorescence quenching on binding to apoprotein, time trace” value in assay [1] was “time-dependent decrease of FMN fluorescence upon cofactor binding to C69A apoflavodoxin”; in assay [2], “the FMN binding trace of this refolded apo-F44YP was measured in various buffers”; in assay [3], “F44YRNC binds FMN rapidly at both salt concentrations”.
